Experimental data reported in patent US20250312336A1, “Compositions And Methods For Treating Cancer With Calcium Channel Inhibitors” (Institute for Cancer Research d/b/a The Research Institute …, priority 2024, published 2025).
“Also recorded” adds a separate entry of the source.

Experiments:
[1] = tested on: store-operated calcium entry (SOCE) in CAFs; assay: Cytosolic calcium (Fluo4) in CAFs co-cultured with Panc-1 cells; type: cell-based, human; settings: indicated concentrations of inhibitors, Fluo4 measured 5 minutes after addition
Experimental: CAF (5×10^3) and PDAC ([…]) cells were incubated (separately or in co-culture) on coverslips for 12 hrs before loading with the calcium indicator Fluo4-AM (5 μM; Invitrogen, Eugene, OR) in DMEM supplemented with HEPES and 0.5% FBS and incubated at 37° C., 5% CO2 for 30 min. Cells were washed in DMEM before incubating for an additional 30 minutes at 37° C., 5% CO2 to permit de-esterification of the dye. Fluorescence emissions at 506 nm in response to excitation at 494 nm were monitored for 60 cycles at a frequency of 0.33 Hz using a Leica SP8 laser scanning microscope (Buffalo Grove, IL) at 37° C. with 5% CO2. Intracellular Ca2+measurements are shown as absolute fluorescence obtained from 35-45 cells obtained using Leica LASX software. Averaged results±SEM from at least three independent experiments were analyzed by one-way ANOVA with GraphPad Prism. […]
CAF (5×10^3) cells were incubated on coverslips for 12 hrs before loading with the calcium indicator Fura2-AM (2 μM; Invitrogen, Eugene, OR) in cation-safe solution (107 mM NaCl, 7.2 mM KCl, 1.2 mM MgCl2, 11.5 mM glucose, 20 mM Hepes-NaOH, 1 mM CaCl2, pH 7.2) for 30 min at 24° C. as previously described. Cells were washed, and dye was allowed to de-esterify for a minimum of 30 min at 24° C. Cells were treated with Vehicle control, […] CM462, or 1 μM BTP2 along with 2 μM Thapsigargin for 10 minutes. After Ca2+ levels returned to their baseline, 1 mM Ca2+ was added. Ca2+ measurements were made using a Leica DMI 6000B fluorescence microscope controlled by Slidebook Software (Intelligent Imaging Innovations; Denver, CO). Fluorescence emission at 505 nm was monitored while alternating between 340 and 380 nm excitation wavelengths at a frequency of 0.67 Hz; intracellular Ca2+ measurements are shown as 340/380 nm ratios obtained from groups (20-25) of single cells.

PDAC cells = assay: Trogocytosis of CAF membranes by PDAC cells with cytoskeleton inhibitors; type: cell-based; settings: cytoskeleton (actin polymerization) inhibitors
Experimental: (§1) To label cellular membranes, pairs of lipophilic fluorescent dyes were used according to the manufacturer's instructions in the following combinations: 1) adherent CAFs were stained with 1 μM PKH67 (Sigma-Aldrich), Panc-1 were stained in suspension with 10 μM CellTracker™ orange CMCMR (Thermo Fisher Scientific); 2) CAFs labeled with 0.5 μM BODIPY-cholesterol (Topfluor Cholesterol, #DO-016545, Avanti Polar Lipids) dissolved in 0.1 mM methyl-beta-cyclodextrin (#C4555, Sigma) with 2 μM cholesterol (#C8667, Sigma-Aldrich) in MEM media at 37° C. for 30 min in suspension; murine or human (Panc-1) PDAC cells were stained in suspension with CPD670 (#65-0840-85, Thermo Fisher Scientific). After labeling, CAFs were co-incubated for the indicated time intervals with PDAC cells in 12-well culture plates at ratio of 2:1 in 0.5% DMEM media. Co-cultures of CAFs and PDAC cells for 3 minutes on ice minutes were used as negative controls. In experiments assessing the effect of extracellular calcium on trogocytosis, cells were co-cultured in Phosphate Buffered Saline (PBS) containing calcium and magnesium (D8662, Sigma-Aldrich) or in PBS without calcium and magnesium (D8537, Sigma-Aldrich). After co-cultures, cells were collected and pelleted by centrifugation (5 min, 1500 rpm), resuspended in 10% formalin (Sigma) for 10 min at RT, washed and re-suspended in PBS/1% BSA. Trogocytosis was measured as the acquisition of CAF-specific fluorescence in PDAC cells by flow cytometry on MACSQuant® VYB Flow Cytometer (Miltenyi Biotec) or FACScan analyzer (BD Biosciences). Analysis of dual staining was done using FlowJo software (10.8.1, BD Biosciences). Live cells were gated based on FSC/SSC parameters, then single cells were gated based on SSC-A/SSC-H.

Panc-1 cells = assay: Trogocytosis of PKH67-labeled CAF membranes by Panc-1 cells in co-culture (flow cytometry); type: cell-based, human; settings: 3 mM EGTA; mean fluorescence intensity normalized to vehicle; listed as dynasore
Experimental: as §1, with “After co-cultures, cells were collected and pelleted by centrifugation (5 min, 1500 rpm), resuspended in 10% formalin (Sigma) for 10 min at RT, washed and re-suspended in PBS/1% BSA.” left out, “Analysis of dual staining was done using FlowJo software (10.8.1, BD Biosciences). Live cells were gated based on FSC/SSC parameters, then single cells were gated based on SSC-A/SSC-H.” left out

ANO6 = target: T1, ANO6 (Homo sapiens, UniProt Q4KMQ2); assay: PtdSer externalization (annexin XII) in CAFs co-cultured with DsRed-tagged Panc-1 cells; type: cell-based; design: this increase was observed only in control CAFs (ANO6-proficient) engaged in physical contacts with DsRed-tagged Panc-1 cells; endogenous in cells; host or cells: human CAFs in co-culture with DsRed-tagged Panc-1 cells; settings: BTP2 10 μM; clofazimine 1 μM; niclosamide
T1 sequence (Q4KMQ2 1-910): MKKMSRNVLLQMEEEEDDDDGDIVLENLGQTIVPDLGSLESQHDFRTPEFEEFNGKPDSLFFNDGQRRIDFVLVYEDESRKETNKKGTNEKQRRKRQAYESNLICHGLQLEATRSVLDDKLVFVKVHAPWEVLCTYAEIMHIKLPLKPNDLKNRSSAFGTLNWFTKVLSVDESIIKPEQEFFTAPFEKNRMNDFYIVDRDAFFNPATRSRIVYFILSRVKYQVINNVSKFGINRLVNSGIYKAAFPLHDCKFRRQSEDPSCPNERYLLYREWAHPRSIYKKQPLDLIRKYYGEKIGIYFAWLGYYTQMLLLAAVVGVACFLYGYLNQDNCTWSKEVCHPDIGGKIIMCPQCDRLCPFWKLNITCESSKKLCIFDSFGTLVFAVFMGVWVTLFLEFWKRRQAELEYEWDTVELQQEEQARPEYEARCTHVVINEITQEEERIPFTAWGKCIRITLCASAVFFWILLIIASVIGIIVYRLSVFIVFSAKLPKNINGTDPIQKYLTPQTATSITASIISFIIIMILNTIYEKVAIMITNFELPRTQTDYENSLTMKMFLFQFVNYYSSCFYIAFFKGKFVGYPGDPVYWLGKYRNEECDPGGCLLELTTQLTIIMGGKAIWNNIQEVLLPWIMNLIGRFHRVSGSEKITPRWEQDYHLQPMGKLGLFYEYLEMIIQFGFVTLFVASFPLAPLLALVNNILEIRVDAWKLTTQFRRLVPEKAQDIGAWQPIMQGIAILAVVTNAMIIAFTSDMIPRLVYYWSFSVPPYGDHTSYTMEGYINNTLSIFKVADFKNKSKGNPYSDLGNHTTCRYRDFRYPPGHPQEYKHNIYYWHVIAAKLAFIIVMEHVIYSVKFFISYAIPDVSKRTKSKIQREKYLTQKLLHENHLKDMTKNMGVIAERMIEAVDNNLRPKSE
Experimental: CAFs were seeded in 24-well glass bottom plates (cat. #81156, Ibidi, Fitchburg, WI) at a density of 20,000 cells per well. Cells were then treated with niclosamide (1 μM) for 2 h. After one wash with FBS-free media at RT, cells were incubated with 250 μl of 1:100 annexin XII and 1:200 propidium iodide (pSIVA Abcam #ab129817), with or without 10 μM ionomycin. Cells were then incubated (5 min 37C) and imaged by fluorescence microscopy using a Nikon A1 camera (Nikon) linked to a Nikon Eclipse Ti2-E Inverted Microscope Imaging System (Nikon) for each channel. Fifteen images per well were acquired.

KPCN349 cells = assay: Trogocytosis of BODIPY-cholesterol labeled CAF membranes by KPCN349 cells with PtdSer masking; type: cell-based, murine; settings: 100 nM Annexin-V or 100 nM Zn-DPA; CAFs pre-treated 2 h, maintained in co-culture
Experimental: as §1, with “After co-cultures, cells were collected and pelleted by centrifugation (5 min, 1500 rpm), resuspended in 10% formalin (Sigma) for 10 min at RT, washed and re-suspended in PBS/1% BSA.” left out, “Analysis of dual staining was done using FlowJo software (10.8.1, BD Biosciences). Live cells were gated based on FSC/SSC parameters, then single cells were gated based on SSC-A/SSC-H.” left out

OT-1 CTLs = assay: Trogocytosis assay of DiD-labeled CAFs co-cultured with OT-1 CTLs; type: cell-based, mouse; settings: 12 h co-culture; niclosamide 1 μM, clofazimine 1 μM, anti-TIM3 Ab 4 μg/ml, 25-hydroxycholesterol 4 μM
Experimental: For trogocytosis between OT-1 and CAF cells, T cells were isolated from splenocytes of OTI mice (strain 021880, The Jackson Laboratory) and stimulated with OVA257-264 (1 μg/ml) for 24 hours as described.
Cholesterol abundance in cell membranes was determined with Cholesterol Detection Assay Kit (Cayman, cat #10009779). Dissociated cells were fixed with fixative solution for 10 minutes, washed and labeled with Filipin III as per the manufacturer's instructions. Labeling with Filipin III was done by incubating in the dark for 30 minutes. After two washes for 5 minutes each, labeling was analyzed by flow cytometry (excitation: 340-380, emission: 385-470). The IFN-γ, Granzyme B and Foxp3 were detected using Foxp3/Transcription Factor Staining Buffer (00-5523-00, Thermo Fisher Scientific). Cells were stained for cell surface markers at 4° C. for 30 min followed by fixation and permeabilization buffer for 30 mins and two washes with permeabilization buffer and incubation with the indicated antibodies for 30 mins, washed with PBS twice followed by flow cytometry analysis.

In the case of `Cc1cccc(F)c1C(=O)Nc1cnc(-c2cc3c(cc2Cl)OC(F)(F)O3)cn1` [zegocractin], the “Cytosolic Ca2+ elevation (Fluo4 signal) in CAFs engaged in cell-cell contacts with PDAC (Panc-1) cells” value (“Cytosolic Ca2+ elevation (Fluo4 signal)” for short) [1] is reported as “abrogated Fluo4 fluorescent signal” and the “Cytosolic Ca2+ elevation (Fluo4 signal)” value ([1]; listed as zegocratin) is reported as “effectively blocked cytosolic Ca2+ elevation”.

For `C/C1=C/C(=O)O[C@@H]2C[C@@H](CC[C@H](C)/C=C\CC1)O[C@@](O)([C@@H]1CSC(=O)N1)C2` [Latrunculin B], the “Uptake of CAF PMs by PDAC cells” value (PDAC cells) was “suppressed uptake of CAF PMs”.

`O=C(N/N=C/c1ccc(O)c(O)c1)c1cc2ccccc2cc1O` [Dynasore] was tested, and the “Trogocytosis of CAF membranes / uptake of membrane lipids from human CAFs by Panc-1 cells” value (Panc-1 cells) was “did not affect the uptake”.

With `Cc1nnsc1C(=O)Nc1ccc(-n2nc(C(F)(F)F)cc2C(F)(F)F)cc1` [BTP2] the “Cytosolic Ca2+ elevation (Fluo4 signal)” value [1] was “effectively blocked cytosolic Ca2+ elevation; also recorded: abrogated Fluo4 fluorescent signal” and the “PtdSer externalization (annexin XII) in CAFs co-cultured with Panc-1 cells” value (ANO6) was “suppressed PtdSer externalization; also recorded: blocked”.

With lantrinculin A the “Uptake of CAF PMs by PDAC cells” value (PDAC cells) was “partially suppressed”.

B1: annexin V: PtdSer binding recombinant annexin V, label-free (protein, UniProt P08758 2-320, looked up)
Annexin A5: AQVLRGTVTDFPGFDERADAETLRKAMKGLGTDEESILTLLTSRSNAQRQEISAAFKTLFGRDLLDDLKSELTGKFEKLIVALMKPSRLYDAYELKHALKGAGTNEKVLTEIIASRTPEELRAIKQVYEEEYGSSLEDDVVGDTSGYYQRMLVVLLQANRDPDAGIDEAQVEQDAQALFQAGELKWGTDEEKFITIFGTRSVSHLRKVFDKYMTISGFQIEETIDRETSGNLEQLLLAVVKSIRSIPAYLAETLYYAMKGAGTDDHTLIRVMVSRSEIDLFNIRKEFRKNFATSLYSMIKGDTSGDYKKALLLLCGEDD
With B1 the “Uptake of BODIPY-labeled CAF membranes by KPCN349 cells” value (KPCN349 cells) was “significantly reduced uptake; also recorded: antagonizes trogocytosis” and the “Transfer of DiD (CAF PM uptake) from CAFs to OT-1 CTLs” value (OT-1 CTLs) was “significantly reduced CAF PM uptake”.
